Test: molar heat capacity at constant pressure
Settings: 101.33 kPa, DSC

[Ag+].[Ag+].[S-2] [silver sulfide]
Settings | molar heat capacity at constant pressure [J/K/mol]
299.71 K, Crystal 3 | 73.92
300.71 K, Crystal 3 | 74.02
301.71 K, Crystal 3 | 74.12
302.71 K, Crystal 3 | 74.21
303.71 K, Crystal 3 | 74.31
304.71 K, Crystal 3 | 74.4
305.71 K, Crystal 3 | 74.46
306.71 K, Crystal 3 | 74.53
307.71 K, Crystal 3 | 74.62
308.71 K, Crystal 3 | 74.69
309.71 K, Crystal 3 | 74.77
310.71 K, Crystal 3 | 74.85
311.71 K, Crystal 3 | 74.92
312.71 K, Crystal 3 | 75.14
313.71 K, Crystal 3 | 75.21
314.71 K, Crystal 3 | 75.29
315.71 K, Crystal 3 | 75.36
316.71 K, Crystal 3 | 75.42
317.71 K, Crystal 3 | 75.49
318.71 K, Crystal 3 | 75.53
319.71 K, Crystal 3 | 75.58
320.71 K, Crystal 3 | 75.65
321.71 K, Crystal 3 | 75.71
322.71 K, Crystal 3 | 75.78
323.71 K, Crystal 3 | 75.84
324.71 K, Crystal 3 | 75.9
325.71 K, Crystal 3 | 75.97
326.71 K, Crystal 3 | 76.03
327.71 K, Crystal 3 | 76.09
328.71 K, Crystal 3 | 76.14
329.71 K, Crystal 3 | 76.2
330.71 K, Crystal 3 | 76.26
331.71 K, Crystal 3 | 76.31
332.71 K, Crystal 3 | 76.37
333.71 K, Crystal 3 | 76.42
334.71 K, Crystal 3 | 76.48
335.71 K, Crystal 3 | 76.53
336.71 K, Crystal 3 | 76.58
337.71 K, Crystal 3 | 76.63
338.71 K, Crystal 3 | 76.68
339.71 K, Crystal 3 | 76.74
340.71 K, Crystal 3 | 76.79
341.71 K, Crystal 3 | 76.84
342.71 K, Crystal 3 | 76.89
343.71 K, Crystal 3 | 76.93
344.71 K, Crystal 3 | 76.98
345.71 K, Crystal 3 | 77.03
346.71 K, Crystal 3 | 77.08
347.71 K, Crystal 3 | 77.13
348.71 K, Crystal 3 | 77.18
349.71 K, Crystal 3 | 77.22
350.71 K, Crystal 3 | 77.27
351.71 K, Crystal 3 | 77.32
352.71 K, Crystal 3 | 77.37
353.71 K, Crystal 3 | 77.42
354.71 K, Crystal 3 | 77.46
355.71 K, Crystal 3 | 77.51
356.71 K, Crystal 3 | 77.56
357.71 K, Crystal 3 | 77.61
358.71 K, Crystal 3 | 77.66
359.71 K, Crystal 3 | 77.71
360.71 K, Crystal 3 | 77.76
361.71 K, Crystal 3 | 77.81
362.71 K, Crystal 3 | 77.86
363.71 K, Crystal 3 | 77.91
364.71 K, Crystal 3 | 77.96
365.71 K, Crystal 3 | 78.01
366.71 K, Crystal 3 | 78.07
367.71 K, Crystal 3 | 78.12
368.71 K, Crystal 3 | 78.17
369.71 K, Crystal 3 | 78.23
370.71 K, Crystal 3 | 78.29
371.71 K, Crystal 3 | 78.34
372.71 K, Crystal 3 | 78.4
373.71 K, Crystal 3 | 78.46
374.71 K, Crystal 3 | 78.52
375.71 K, Crystal 3 | 78.58
376.71 K, Crystal 3 | 78.64
377.71 K, Crystal 3 | 78.7
378.71 K, Crystal 3 | 78.76
379.71 K, Crystal 3 | 78.83
380.71 K, Crystal 3 | 78.89
381.71 K, Crystal 3 | 78.96
382.71 K, Crystal 3 | 79.03
383.71 K, Crystal 3 | 79.1
384.71 K, Crystal 3 | 79.17
385.71 K, Crystal 3 | 79.24
386.71 K, Crystal 3 | 79.31
387.71 K, Crystal 3 | 79.39
388.71 K, Crystal 3 | 79.46
389.71 K, Crystal 3 | 79.54
390.71 K, Crystal 3 | 79.62
391.71 K, Crystal 3 | 79.7
392.71 K, Crystal 3 | 79.79
393.71 K, Crystal 3 | 79.87
394.71 K, Crystal 3 | 79.96
395.71 K, Crystal 3 | 80.04
396.71 K, Crystal 3 | 80.13
397.71 K, Crystal 3 | 80.23
398.71 K, Crystal 3 | 80.32
399.71 K, Crystal 3 | 80.41
400.71 K, Crystal 3 | 80.5
401.71 K, Crystal 3 | 80.6
402.71 K, Crystal 3 | 80.69
403.71 K, Crystal 3 | 80.78
404.71 K, Crystal 3 | 80.88
405.71 K, Crystal 3 | 80.98
406.71 K, Crystal 3 | 81.09
407.71 K, Crystal 3 | 81.19
408.71 K, Crystal 3 | 81.3
409.71 K, Crystal 3 | 81.41
410.71 K, Crystal 3 | 81.52
411.71 K, Crystal 3 | 81.63
412.71 K, Crystal 3 | 81.75
413.71 K, Crystal 3 | 81.87
414.71 K, Crystal 3 | 81.99
415.71 K, Crystal 3 | 82.11
416.71 K, Crystal 3 | 82.24
417.71 K, Crystal 3 | 82.37
418.71 K, Crystal 3 | 82.5
419.71 K, Crystal 3 | 82.64
420.71 K, Crystal 3 | 82.77
421.71 K, Crystal 3 | 82.91
422.71 K, Crystal 3 | 83.06
423.71 K, Crystal 3 | 83.2
424.71 K, Crystal 3 | 83.35
425.71 K, Crystal 3 | 83.51
426.71 K, Crystal 3 | 83.66
427.71 K, Crystal 3 | 83.82
428.71 K, Crystal 3 | 83.98
429.71 K, Crystal 3 | 84.15
430.71 K, Crystal 3 | 84.32
431.71 K, Crystal 3 | 84.49
432.71 K, Crystal 3 | 84.66
433.71 K, Crystal 3 | 84.84
434.71 K, Crystal 3 | 85.01
435.71 K, Crystal 3 | 85.19
436.71 K, Crystal 3 | 85.36
437.71 K, Crystal 3 | 85.54
438.71 K, Crystal 3 | 85.72
439.71 K, Crystal 3 | 85.91
440.71 K, Crystal 3 | 86.2
441.71 K, Crystal 3 | 86.6
442.71 K, Crystal 3 | 87.1
443.71 K, Crystal 3 | 87.6
444.71 K, Crystal 3 | 88.38
446.71 K, Crystal 3 | 90.5
447.71 K, Crystal 3 | 92.95
448.71 K, Crystal 3 | 93.65
449.71 K, Crystal 3 | 94.94
461.57 K, Crystal 2 | 90.56
462.57 K, Crystal 2 | 90.49
463.57 K, Crystal 2 | 90.42
464.57 K, Crystal 2 | 90.35
465.57 K, Crystal 2 | 90.28
466.57 K, Crystal 2 | 90.21
467.57 K, Crystal 2 | 90.13
468.57 K, Crystal 2 | 90.06
469.57 K, Crystal 2 | 89.98
470.57 K, Crystal 2 | 89.9
471.57 K, Crystal 2 | 89.82
472.57 K, Crystal 2 | 89.75
473.57 K, Crystal 2 | 89.67
474.57 K, Crystal 2 | 89.59
475.57 K, Crystal 2 | 89.51
476.57 K, Crystal 2 | 89.43
477.57 K, Crystal 2 | 89.35
478.57 K, Crystal 2 | 89.28
479.57 K, Crystal 2 | 89.2
480.57 K, Crystal 2 | 89.12
481.57 K, Crystal 2 | 89.05
482.57 K, Crystal 2 | 88.97
483.57 K, Crystal 2 | 88.9
484.57 K, Crystal 2 | 88.83
485.57 K, Crystal 2 | 88.76
486.57 K, Crystal 2 | 88.69
487.57 K, Crystal 2 | 88.62
488.57 K, Crystal 2 | 88.55
489.57 K, Crystal 2 | 88.48
490.57 K, Crystal 2 | 88.42
491.57 K, Crystal 2 | 88.35
492.57 K, Crystal 2 | 88.29
493.57 K, Crystal 2 | 88.23
494.57 K, Crystal 2 | 88.17
495.57 K, Crystal 2 | 88.11
496.57 K, Crystal 2 | 88.06
497.57 K, Crystal 2 | 88
498.57 K, Crystal 2 | 87.95
499.57 K, Crystal 2 | 87.9
500.57 K, Crystal 2 | 87.85
501.57 K, Crystal 2 | 87.8
502.57 K, Crystal 2 | 87.76
503.57 K, Crystal 2 | 87.71
504.57 K, Crystal 2 | 87.67
505.57 K, Crystal 2 | 87.62
506.57 K, Crystal 2 | 87.58
507.57 K, Crystal 2 | 87.54
508.57 K, Crystal 2 | 87.54
509.57 K, Crystal 2 | 87.54
510.57 K, Crystal 2 | 87.54
511.57 K, Crystal 2 | 87.57
512.57 K, Crystal 2 | 87.59
513.57 K, Crystal 2 | 87.61
514.57 K, Crystal 2 | 87.61
515.57 K, Crystal 2 | 87.61
516.57 K, Crystal 2 | 87.62
517.57 K, Crystal 2 | 87.62
518.57 K, Crystal 2 | 87.62
519.57 K, Crystal 2 | 87.64
520.57 K, Crystal 2 | 87.64
521.82 K, Crystal 2 | 87.58
522.82 K, Crystal 2 | 87.56
523.82 K, Crystal 2 | 87.54
524.82 K, Crystal 2 | 87.52
525.82 K, Crystal 2 | 87.5
526.82 K, Crystal 2 | 87.48
527.82 K, Crystal 2 | 87.46
528.82 K, Crystal 2 | 87.45
529.82 K, Crystal 2 | 87.43
530.82 K, Crystal 2 | 87.42
531.82 K, Crystal 2 | 87.4
532.82 K, Crystal 2 | 87.39
533.82 K, Crystal 2 | 87.38
534.82 K, Crystal 2 | 87.37
535.82 K, Crystal 2 | 87.36
536.82 K, Crystal 2 | 87.35
537.82 K, Crystal 2 | 87.34
538.82 K, Crystal 2 | 87.33
539.82 K, Crystal 2 | 87.32
540.82 K, Crystal 2 | 87.31
541.82 K, Crystal 2 | 87.3
542.82 K, Crystal 2 | 87.29
543.82 K, Crystal 2 | 87.28
544.82 K, Crystal 2 | 87.27
545.82 K, Crystal 2 | 87.26
546.82 K, Crystal 2 | 87.26
547.82 K, Crystal 2 | 87.25
548.82 K, Crystal 2 | 87.24
549.82 K, Crystal 2 | 87.23
550.82 K, Crystal 2 | 87.22
551.82 K, Crystal 2 | 87.22
552.82 K, Crystal 2 | 87.21
553.82 K, Crystal 2 | 87.2
554.82 K, Crystal 2 | 87.19
555.82 K, Crystal 2 | 87.18
556.82 K, Crystal 2 | 87.17
557.82 K, Crystal 2 | 87.17
558.82 K, Crystal 2 | 87.16
559.82 K, Crystal 2 | 87.15
560.82 K, Crystal 2 | 87.14
561.82 K, Crystal 2 | 87.13
562.82 K, Crystal 2 | 87.12
563.82 K, Crystal 2 | 87.11
564.82 K, Crystal 2 | 87.1
565.82 K, Crystal 2 | 87.09
566.82 K, Crystal 2 | 87.07
567.82 K, Crystal 2 | 87.06
568.82 K, Crystal 2 | 87.05
569.82 K, Crystal 2 | 87.04
570.82 K, Crystal 2 | 87.02
571.82 K, Crystal 2 | 87.01
572.82 K, Crystal 2 | 87
573.82 K, Crystal 2 | 86.98
574.82 K, Crystal 2 | 86.97
575.82 K, Crystal 2 | 86.95
576.82 K, Crystal 2 | 86.94
577.82 K, Crystal 2 | 86.92
578.82 K, Crystal 2 | 86.91
579.82 K, Crystal 2 | 86.89
580.82 K, Crystal 2 | 86.87
581.82 K, Crystal 2 | 86.85
582.82 K, Crystal 2 | 86.83
583.82 K, Crystal 2 | 86.82
584.82 K, Crystal 2 | 86.8
585.82 K, Crystal 2 | 86.78
586.82 K, Crystal 2 | 86.76
587.82 K, Crystal 2 | 86.74
588.82 K, Crystal 2 | 86.72
589.82 K, Crystal 2 | 86.7
590.82 K, Crystal 2 | 86.67
591.82 K, Crystal 2 | 86.65
592.82 K, Crystal 2 | 86.63
593.82 K, Crystal 2 | 86.61
594.82 K, Crystal 2 | 86.61
595.82 K, Crystal 2 | 86.63
596.82 K, Crystal 2 | 86.62
597.82 K, Crystal 2 | 86.62
598.82 K, Crystal 2 | 86.6
599.82 K, Crystal 2 | 86.6
600.82 K, Crystal 2 | 86.58
601.82 K, Crystal 2 | 86.55
602.82 K, Crystal 2 | 86.53
603.82 K, Crystal 2 | 86.5
604.82 K, Crystal 2 | 86.48
605.82 K, Crystal 2 | 86.45
606.82 K, Crystal 2 | 86.43
607.82 K, Crystal 2 | 86.4
608.82 K, Crystal 2 | 86.38
609.82 K, Crystal 2 | 86.35
610.82 K, Crystal 2 | 86.33
611.82 K, Crystal 2 | 86.3
612.82 K, Crystal 2 | 86.28
613.82 K, Crystal 2 | 86.25
614.82 K, Crystal 2 | 86.23
615.82 K, Crystal 2 | 86.2
616.82 K, Crystal 2 | 86.18
